Measurements as given in paper PMC8432172, “Properties of Transport Mediated by the Human Organic Cation Transporter 2 Studied in a Polarized Three-Dimensional Epithelial Cell Culture Model” (International Journal of Molecular Sciences, 2021).
Values joined by “and” are separate entries in the source; they are usually repeats but may differ in a detail not shown here. Identical values can stand only once. “Also recorded” adds a separate entry of the source.

Tests used:
hOCT2 [1] = target: T1, hOCT2 (Homo sapiens, UniProt O15244); experiment: ASP+ uptake (saturation and inhibition) in hOCT2-HEK cells; format: cell-based; design: expressed in transfected cells; host or cells: HEK293, stably transfected; gift of Prof; Koepsell (University of Würzburg)
T1 sequence (O15244 1-555): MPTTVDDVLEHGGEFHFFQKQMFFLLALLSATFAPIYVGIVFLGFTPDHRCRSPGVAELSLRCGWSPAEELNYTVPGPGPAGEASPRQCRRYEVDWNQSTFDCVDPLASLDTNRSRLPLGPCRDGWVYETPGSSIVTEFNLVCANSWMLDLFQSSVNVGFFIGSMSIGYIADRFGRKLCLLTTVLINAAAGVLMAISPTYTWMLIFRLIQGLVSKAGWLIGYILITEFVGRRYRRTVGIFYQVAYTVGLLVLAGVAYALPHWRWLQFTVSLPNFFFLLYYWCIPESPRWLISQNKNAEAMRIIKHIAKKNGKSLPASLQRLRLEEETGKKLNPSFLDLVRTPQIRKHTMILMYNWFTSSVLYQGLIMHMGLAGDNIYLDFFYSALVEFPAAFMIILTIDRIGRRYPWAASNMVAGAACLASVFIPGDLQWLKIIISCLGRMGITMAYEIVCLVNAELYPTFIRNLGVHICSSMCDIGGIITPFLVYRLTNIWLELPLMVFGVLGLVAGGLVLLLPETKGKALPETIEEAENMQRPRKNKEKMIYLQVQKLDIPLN

hOCT2 [2] = target: T1, hOCT2; experiment: ASP+ uptake (saturation and inhibition) in hOCT2-MDCK cysts; format: cell-based; design: The full-length hOCT2 tagged at the carboxy-terminus with GFP (hOCT2-GFP); expressed in transfected cells; host or cells: MDCK II cells (ECACC 00062107), retroviral transduction with pQCXIH, grown as cysts in BME2
hOCT2 [3] = target: T1, hOCT2; experiment: Acute regulation of ASP+ uptake and ASP+ transport kinetics in hOCT2-MDCK cysts (10 min incubation with kinase/calmodulin inhibitors); format: cell-based; design: The full-length hOCT2 tagged at the carboxy-terminus with GFP (hOCT2-GFP); expressed in transfected cells; host or cells: MDCK II cells (ECACC 00062107), retroviral transduction with pQCXIH, grown as cysts in BME2; conditions: for Acute regulation of initial ASP+ uptake after 10 min incubation: 4 µM ASP+, calmidazolium 5 µM, aminogenistein 10 µM, TBBz 10 µM
Method: (§1) The organic cation ASP^+ was used as a fluorescent substrate of hOCT2 [54]. […] To evaluate hOCT2 function, cellular fluorescence was measured before and after ASP^+ addition in the hOCT2-HEK cells and hOCT2-MDCK and EV-MDCK cysts. Transport measurements were performed at T = 37 °C. […] The effects of the CKII regulation pathway on the kinetic parameters of ASP^+ uptake in hOCT2- MDCK-3D were investigated, comparing the saturation curves in the presence or absence of the regulator.

hOCT2 [4] = experiment: Acute regulation of ASP+ uptake in hOCT2-HEK cells (10 min incubation with kinase/calmodulin inhibitors); format: cell-based, human; conditions: 1 µM ASP+, calmidazolium 5 µM, aminogenistein 10 µM, TBBz 10 µM
Method: as §1

endogenous canine OCT2 = experiment: ASP+ uptake in EV-MDCK cysts (empty vector); format: cell-based; conditions: EV-MDCK cysts (GFP alone); 1 mM TPA+
Method: Upon the addition of 4 µM ASP^+, an increase in cellular fluorescence was observed over time. This fluorescence increase was much higher in the hOCT2-MDCK than the EV-MDCK cysts. […] The slope of the linear range of the ASP^+ uptake increase measured in the first 2 min after ASP^+ addition (arbitrary fluorescence units/[…]) was used as the measurement of the transporter function.
The organic cation ASP^+ was used as a fluorescent substrate of hOCT2 [54]. […] To evaluate hOCT2 function, cellular fluorescence was measured before and after ASP^+ addition in the hOCT2-HEK cells and hOCT2-MDCK and EV-MDCK cysts. Transport measurements were performed at T = 37 °C.

[5] = hOCT2-HEK cells, 1 µM ASP+, 37 °C
[6] = hOCT2-HEK cells, 1 µM ASP+, 37 °C, read-out: IC50 for the inhibition of ASP+ uptake
[7] = hOCT2-MDCK cysts, 4 µM ASP+, 37 °C
[8] = hOCT2-MDCK cysts, 4 µM ASP+, 37 °C, read-out: IC50 for the inhibition of ASP+ uptake

Row | Compound | logIC50 ± SEM for the inhibition of ASP+ uptake (hOCT2 [1]; [5]) | IC50 (hOCT2 [1]; [6]) [µM] | logIC50 ± SEM for the inhibition of ASP+ uptake (hOCT2 [2]; [7]) | IC50 (hOCT2 [2]; [8]) [µM] | Acute regulation of initial ASP+ uptake after 10 min incubation (hOCT2 [4]) | Acute regulation of initial ASP+ uptake after 10 min incubation (hOCT2 [3]) | also measured
1 | CN(C)c1ccc(C=Cc2cc[n+](C)cc2)cc1 [ASP^+, 4-(4-(dimethylamino)styryl)-N-methylpyridinium] |  |  |  |  |  |  | Km (hOCT2 [1]; hOCT2-HEK cells, 0-20 µM ASP+, uptake in presence of 1 mM TPA+ subtracted, 37 °C, read-out: Km ± SEM of specific ASP+ uptake): 3.1 ± 0.2 µM; Km (hOCT2 [2]; hOCT2-MDCK cysts, 0-20 µM ASP+, uptake in presence of 1 mM TPA+ subtracted, 37 °C, read-out: Km ± SEM of specific ASP+ uptake): 3.6 ± 1.2 µM; Vmax of ASP+ transport, control (-TBBz) (hOCT2 [3]; 10 min preincubation with control solution): 6.1 ± 0.1 a.u./s^2; Km (hOCT2 [3]; 10 min preincubation with control solution, read-out: Km of ASP+ transport, control (-TBBz)): 2.6 ± 0.2 µM
2 | CCS(=O)(=O)N1CC(CC#N)(n2cc(-c3ncnc4[nH]ccc34)cn2)C1 [Baricitinib, baricitinib] | −6.00 ± 0.06 | 1.1 | −4.81 ± 0.06 | 15.4 |  |  | logIC50 ± SEM for the inhibition of ASP+ uptake (hOCT2 [1]; hOCT2-HEK cells, 1 µM ASP+, 37 °C, listed as baricitinib): −6.0 ± 0.1; logIC50 ± SEM for the inhibition of ASP+ uptake (hOCT2 [2]; hOCT2-MDCK cysts, 4 µM ASP+, 37 °C, listed as baricitinib): −4.8 ± 0.1
3 | CN(C)C(=N)N=C(N)N [Metformin, metformin] | −3.10 ± 0.11 | 804 | −3.05 ± 0.09 | 884 |  |  | logIC50 ± SEM for the inhibition of ASP+ uptake (hOCT2 [1]; hOCT2-HEK cells, 1 µM ASP+, 37 °C, listed as metformin): −3.1 ± 0.1; logIC50 ± SEM for the inhibition of ASP+ uptake (hOCT2 [2]; hOCT2-MDCK cysts, 4 µM ASP+, 37 °C, listed as metformin): −3.1 ± 0.1
4 | Brc1c(Br)c(Br)c2[nH]cnc2c1Br [TBBz, 4,5,6,7-tetrabromobenzimidazole] |  |  |  |  | only in the hOCT2-MDCK cysts | rapid decrease in ASP^+ uptake only in the hOCT2-MDCK cysts | Vmax of ASP+ transport under CKII inhibition (+TBBz) (hOCT2 [3]; 10 min preincubation with 10 µM TBBz): 3.9 ± 0.8 a.u./s^2
5 | CC[N+](CC)(CC)CC [TEA^+, tetraethylammonium] | −5.1 ± 0.1 and −5.12 ± 0.08 | 7.6 | −4.7 ± 0.1 and −4.67 ± 0.11 | 21.3 |  |  | 
6 | CCCCC[N+](CCCCC)(CCCCC)CCCCC [TPA^+, tetrapentylammonium] | −5.9 ± 0.2 and −5.85 ± 0.11 |  | −6.1 ± 0.1 and −6.04 ± 0.05 |  |  |  | Inhibition of uptake of 4 µM ASP+ by 1 mM competitor (endogenous canine OCT2): significantly inhibited; IC50 (hOCT2 [1]): 1.4 µM; IC50 (hOCT2 [2]): 0.9 µM; Inhibition of uptake of 4 µM ASP+ by 1 mM competitor (hOCT2 [2]; hOCT2-MDCK cysts, 1 mM TPA+ in uptake buffer): almost completely inhibited; also recorded: completely suppressed
7 | Nc1ccc(-c2cc(=O)c3cc(O)ccc3o2)cc1 [aminogenistein] |  |  |  |  | rapid decrease in ASP^+ uptake | rapid decrease in ASP^+ uptake | 
8 | Clc1ccc(C(c2ccc(Cl)cc2)n2cc[n+](CC(OCc3ccc(Cl)cc3Cl)c3ccc(Cl)cc3Cl)c2)cc1 (stereo not drawn) [calmidazolium] |  |  |  |  | rapid decrease in ASP^+ uptake | rapid decrease in ASP^+ uptake | 
